# Source: patent US20120115778A1, “Methods of Suppressing Appetite by the Administration of Antagonists of the Serotonin HTR1a or HTR2b Receptors or Inhibitors of TPH2” (The Trustees of Columbia University in the City of New York, priority 2009, published 2012)
# Key:
# [1] = system: c-Fos expression in neurons of the paraventricular and arcuate nuclei; assay: Melanocortin sensitivity analysis: c-Fos expression after ICV Mc4r agonist; type: in vivo; conditions: ICV infusion, both WT and Tph2-/- mice
# Procedure: A survey was carried out of the expression of genes in hypothalamic neurons that may mediate leptin regulation of appetite and the expression of which is perturbed in Tph2−/− mice. […] Two observations support the notion that the appetite phenotype of the Tph2−/− mice is caused, at least in part, by an increase in melanocortin signaling. […] Moreover, Mc4r expression was increased ˜2 fold in Htr1a−/− and ˜1.6 fold in Htr2bPomc−/− mice, but was unaffected in Htr2c−/− mice (FIG. 6J and data not shown).
# To analyze changes in melanocortin sensitivity in Tph2−/− mice, MTII (2 μg) or saline was administered (ICV) into WT and Tph2−/− mice. 3 hours later mice were transcardially perfused with 4% PFA, brains were dissected and postfixed in 4% PFA overnight at 4° C. Following cryoprotection in 20% sucrose, brains were coronally sectioned at 30 μm thickness. For colorimetric cFos immunohistochemistry, sections were incubated for 16 hrs at 4° C. in rabbit anti-cFos antiserum (Ab-5; 1:3000 dilution; Calbiochem), incubated with biotinylated goat anti-rabbit IgG secondary antiserum (1:600; Vector laboratories) for 2 h at room temperature, and then incubated in avidin biotin complex (Vector Labs). Color was developed using Vector ABC kit.
# [2] = system: CREB phosphorylation in arcuate neurons; assay: CREB phosphorylation in hypothalamic explant cultures (immunofluorescence of p-CREB); type: cell-based, mice; conditions: hypothalamic explants treated with serotonin
# Procedure: FIG. 18. (A) Western blot analysis of CREB phosphorylation and CREB in hypothalamic explants treated with PBS, serotonin (50 µM), Htr1a antagonist (LY426955) (50 µM) or serotonin (50 µM)+Htr1a antagonist (LY426955) (50 µM). (B) Analysis of CREB phosphorylation by immunofluorescence using P-CREB (S133) antibody. Immunofluorescence was performed on coronal sections of wild type (WT) hypothalamic explants previously treated with, PBS, 50 µM serotonin, 50 µM Htr1a antagonist (LY426955) or 50 µM serotonin+50 µM Htr1a antagonist (LY426955) for 30 min. The first row represents large bright field images of hypothalamic sections and the immunofluorescence analysis of the restricted hypothalamic region containing the Arcuate (Arc) neurons. Ventromedial hypothalamus (VMH) and Arcuate (Arc) are outlined with dashed. (C-D) Analysis of the appetite of CrebPomc−/− mice. (C) Measurement of the food intake (g) within 12 hours and 24 hours and (D) body weight analysis in WT, CrebPomc+/− and CrebPomc−/− mice. *(p<0.05, SEM). (E) Real-time PCR analysis of Mc4r, Pomc-1, Cart, Mch, Hypocretine and Npy expression in hypothalamus of WT and CrebPomc−/− mice. *(p<0.05, SEM).
# Htr1a is a […] coupled receptor that signals through the cAMP-PKA-dependent pathway. […]
# Tph2 expression = assay: qPCR analysis of Tph2 expression following leptin ICV infusion; type: in vivo; conditions: WT mice, different doses and time points
# Text: FIG. 5. Leptin inhibits bone mass accrual by inhibiting brain-derived serotonin synthesis. (A) In situ hybridization analysis and co-immunolocalization of ObRb expression in serotonergic neurons. (B-C) qPCR analysis of Tph2 expression (B) and brainstem serotonin content (C) at different ages in WT and ob/ob female mice. (D-E) qPCR analysis of Tph2 expression following intra-cerebroventricular (ICV) infusion of leptin at different doses (D) and at different time points (E) in WT mice. (F) Immunohistochemical analysis of STAT3 phosphorylation in the dorsal and median raphe following leptin ICV. Arrows indicate pSTAT3/β-Gal positive cells. (G-H) qPCR analysis of Tph2 expression (G) and brainstem serotonin content (H) in WT, ob/ob and ob/ob; Tph2+/− mice. (I) Histomorphometric analysis of vertebrae of ob/ob and ob/ob; Tph2+/− mice. (J) Representative traces of action potentials recorded from WT mice before, during and after the application of leptin (100 nM). R.M.P. −43.0 mV. (K-L) Analysis of serotonergic neuron action potential (AP) frequency in brainstem slices from WT (K) and ObRbSERT−/− (L) mice. All panels (except D, E, G, H and K) *P<0.05; **P<0.01 (Student's t test). Error bars, SEM. […]
# RNA isolation, cDNA preparation and qPCR analysis was carried out following standard protocols. Genotypes of all the mice were determined by PCR. […]
# phosphorylation of Stat3 = assay: Co-immunolocalization of Stat3 phosphorylation in serotonergic neurons of the brainstem after acute leptin ICV infusion; type: in vivo, mice
# Text: Multiple lines of evidence indicate that it is by inhibiting BDS synthesis that leptin prevents bone mass accrual. First, ObRb, the signaling form of the leptin receptor, is expressed in β-galactosidase-positive Tph2-expressing neurons (FIG. 5A). […] Leptin inhibits synthesis of BDS, which in turn reduces, by signaling in VMH neurons, the sympathetic tone; as a result leptin prevents bone mass accrual.
# Animals were anaesthetized and placed on a stereotaxic instrument (Stoelting) and the depth of anesthesia was determined by the animal's respiratory pattern and by pinching the animal's foot for reflex response. The dorsal part of the animal's head was shaved and prepped with betadine scrub, and 70% alcohol. The skin covering the head was then cut (approximately a 1 cm incision) and the calvaria exposed. A hole was drilled upon bregma using a 28-gauge needle. A 28 gauze needle canula (Brain infusion kit II, Alzet) was then implanted into the hole reaching the third cerebral ventricle according to the following coordinates: midline, −0.3 AP. 3 mm ventral (0 point Bregma). Using a Hamilton syringe, PBS or leptin (2 μg) was injected into the 3rd cerebral ventricle. The dorsal edges of the incision were coated with Bupivicaine 0.25% (<2 mg/kg), joined and closed with 2 sterile clips. […]
# serotonergic neurons = assay: Whole cell patch clamp recording in brain slices containing dorsal raphe; type: cell-based; conditions: WT mice
# Procedure: The mediation of peripheral hormone action on the output of the brain relies on altered neuronal circuit activity. Interaction between neuronal circuits hinges on electric properties of neurons, particularly on the generation of action potentials. Thus, to test whether leptin directly alters serotonin output from brainstem neurons, the responses of serotonin-producing cells to leptin were analyzed with whole cell patch clamp recording in brain slices containing dorsal raphe (DR). Slices were taken from WT animals and from mice lacking ObRb selectively in Tph2-expressing neurons (ObRbSERT−/− mice). Serotonergic neurons were identified according to their unique properties (long-duration action potential, activation by norepinephrine and inhibition by serotonin itself) (Liu et al., 2002, J. Neurosci. 22:9453-9464). Since serotonergic neurons are usually quiescent in slices because of the loss of noradrenergic inputs, action potentials in these neurons were restored by application of alpha-1 adrenergic agonist phenylephrine (3 μM) in the bath (Liu et al., 2002, J. Neurosci. 22:9453-9464). […]
# Whole-cell current clamp was performed to observe action potentials in DR seritonergic (5-HT) neurons with a Multiclamp 700A amplifier (Axon instrument, CA). […] Electrophysiological data were analyzed with Axograph 4.9 and plotted with Igor Pro software (WaveMetrics, Lake Oswego, Oreg.).
compound,measurement,setting,value
MTII,c-Fos expression in neurons of the paraventricular and arcuate nuclei,[1],increased c-Fos expression
NCCc1c[nH]c2ccc(O)cc12 [serotonin],CREB phosphorylation,[2],increased CREB phosphorylation in arcuate neurons
leptin: adipocyte-derived hormone that regulates appetite and energy expenditure,Tph2 expression,Tph2 expression,decreased Tph2 expression in a time- and dose-dependent manner
same,phosphorylation of Stat3 in serotonergic neurons of the brainstem,phosphorylation of Stat3; ObRbSERT-/- mice,dramatically reduced
same,phosphorylation of Stat3 in serotonergic neurons of the brainstem,phosphorylation of Stat3; WT mice,increased
same,action potential frequency in serotonergic neurons,serotonergic neurons,significantly decreased action potential frequency
